According to ChEMBL document CHEMBL5465560, “Selectivity Literature for EUbOPEN Chemogenomic Library” (2024):

Experiments:
[1] = target: Cyclin-dependent kinase 4 (Homo sapiens, UniProt P11802); experiment: Selectivity interaction (KinomeScan (DiscoverX)) EUB0001049a CDK4; details: at 1 µM
[2] = target: T1, Dual specificity mitogen-activated protein kinase kinase 5 (Homo sapiens) (UniProt Q13163); experiment: Selectivity interaction (Kinase panel (KiNativ target engagement assay in Jurkat cells)) EUB0001635a MAP2K5; assay type: cell-based; details: Selectivity number of off-targets 0.0, Selectivity number of targets 233.0, Source Knowledge https://www.sciencedirect.com/science/article/pii/S2451945619300674?via%3Dihub, at 1 µM
T1 sequence (whole entry): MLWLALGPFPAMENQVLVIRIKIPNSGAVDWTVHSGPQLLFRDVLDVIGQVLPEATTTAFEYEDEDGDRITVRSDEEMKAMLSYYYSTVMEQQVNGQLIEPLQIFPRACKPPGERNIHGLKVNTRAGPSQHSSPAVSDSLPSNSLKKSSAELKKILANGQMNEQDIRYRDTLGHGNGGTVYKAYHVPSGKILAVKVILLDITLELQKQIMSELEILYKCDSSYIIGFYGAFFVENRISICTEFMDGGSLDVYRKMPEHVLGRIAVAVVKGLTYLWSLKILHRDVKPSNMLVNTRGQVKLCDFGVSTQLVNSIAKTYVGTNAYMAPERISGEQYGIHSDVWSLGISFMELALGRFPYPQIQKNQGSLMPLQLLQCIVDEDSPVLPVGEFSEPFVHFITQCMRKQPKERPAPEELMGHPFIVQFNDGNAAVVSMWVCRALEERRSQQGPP

[3] = target: T2, Dual specificity mitogen-activated protein kinase kinase 6 (Homo sapiens) (UniProt P52564); experiment: Selectivity interaction (Kinase panel (DSF assay)) EUB0001559a MAP2K6
T2 sequence (whole entry): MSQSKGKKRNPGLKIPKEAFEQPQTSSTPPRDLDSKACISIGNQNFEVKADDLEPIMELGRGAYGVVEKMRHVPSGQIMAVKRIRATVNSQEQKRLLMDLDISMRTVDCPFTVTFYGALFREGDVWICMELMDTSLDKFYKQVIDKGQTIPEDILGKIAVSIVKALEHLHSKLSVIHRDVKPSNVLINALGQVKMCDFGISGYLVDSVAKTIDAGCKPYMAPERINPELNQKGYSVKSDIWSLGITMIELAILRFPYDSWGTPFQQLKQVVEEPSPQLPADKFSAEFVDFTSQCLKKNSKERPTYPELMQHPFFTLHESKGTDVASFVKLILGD

[4] = target: TP53-binding protein 1 (Homo sapiens) (UniProt Q12888); experiment: Selectivity interaction (PWWP, WD40, and Tudor domain panel (DSLS measurements, literature)) EUB0000270b TP53BP1
TP53-binding protein 1 (Homo sapiens), sequence (Q12888 whole entry, the tested form may be a part): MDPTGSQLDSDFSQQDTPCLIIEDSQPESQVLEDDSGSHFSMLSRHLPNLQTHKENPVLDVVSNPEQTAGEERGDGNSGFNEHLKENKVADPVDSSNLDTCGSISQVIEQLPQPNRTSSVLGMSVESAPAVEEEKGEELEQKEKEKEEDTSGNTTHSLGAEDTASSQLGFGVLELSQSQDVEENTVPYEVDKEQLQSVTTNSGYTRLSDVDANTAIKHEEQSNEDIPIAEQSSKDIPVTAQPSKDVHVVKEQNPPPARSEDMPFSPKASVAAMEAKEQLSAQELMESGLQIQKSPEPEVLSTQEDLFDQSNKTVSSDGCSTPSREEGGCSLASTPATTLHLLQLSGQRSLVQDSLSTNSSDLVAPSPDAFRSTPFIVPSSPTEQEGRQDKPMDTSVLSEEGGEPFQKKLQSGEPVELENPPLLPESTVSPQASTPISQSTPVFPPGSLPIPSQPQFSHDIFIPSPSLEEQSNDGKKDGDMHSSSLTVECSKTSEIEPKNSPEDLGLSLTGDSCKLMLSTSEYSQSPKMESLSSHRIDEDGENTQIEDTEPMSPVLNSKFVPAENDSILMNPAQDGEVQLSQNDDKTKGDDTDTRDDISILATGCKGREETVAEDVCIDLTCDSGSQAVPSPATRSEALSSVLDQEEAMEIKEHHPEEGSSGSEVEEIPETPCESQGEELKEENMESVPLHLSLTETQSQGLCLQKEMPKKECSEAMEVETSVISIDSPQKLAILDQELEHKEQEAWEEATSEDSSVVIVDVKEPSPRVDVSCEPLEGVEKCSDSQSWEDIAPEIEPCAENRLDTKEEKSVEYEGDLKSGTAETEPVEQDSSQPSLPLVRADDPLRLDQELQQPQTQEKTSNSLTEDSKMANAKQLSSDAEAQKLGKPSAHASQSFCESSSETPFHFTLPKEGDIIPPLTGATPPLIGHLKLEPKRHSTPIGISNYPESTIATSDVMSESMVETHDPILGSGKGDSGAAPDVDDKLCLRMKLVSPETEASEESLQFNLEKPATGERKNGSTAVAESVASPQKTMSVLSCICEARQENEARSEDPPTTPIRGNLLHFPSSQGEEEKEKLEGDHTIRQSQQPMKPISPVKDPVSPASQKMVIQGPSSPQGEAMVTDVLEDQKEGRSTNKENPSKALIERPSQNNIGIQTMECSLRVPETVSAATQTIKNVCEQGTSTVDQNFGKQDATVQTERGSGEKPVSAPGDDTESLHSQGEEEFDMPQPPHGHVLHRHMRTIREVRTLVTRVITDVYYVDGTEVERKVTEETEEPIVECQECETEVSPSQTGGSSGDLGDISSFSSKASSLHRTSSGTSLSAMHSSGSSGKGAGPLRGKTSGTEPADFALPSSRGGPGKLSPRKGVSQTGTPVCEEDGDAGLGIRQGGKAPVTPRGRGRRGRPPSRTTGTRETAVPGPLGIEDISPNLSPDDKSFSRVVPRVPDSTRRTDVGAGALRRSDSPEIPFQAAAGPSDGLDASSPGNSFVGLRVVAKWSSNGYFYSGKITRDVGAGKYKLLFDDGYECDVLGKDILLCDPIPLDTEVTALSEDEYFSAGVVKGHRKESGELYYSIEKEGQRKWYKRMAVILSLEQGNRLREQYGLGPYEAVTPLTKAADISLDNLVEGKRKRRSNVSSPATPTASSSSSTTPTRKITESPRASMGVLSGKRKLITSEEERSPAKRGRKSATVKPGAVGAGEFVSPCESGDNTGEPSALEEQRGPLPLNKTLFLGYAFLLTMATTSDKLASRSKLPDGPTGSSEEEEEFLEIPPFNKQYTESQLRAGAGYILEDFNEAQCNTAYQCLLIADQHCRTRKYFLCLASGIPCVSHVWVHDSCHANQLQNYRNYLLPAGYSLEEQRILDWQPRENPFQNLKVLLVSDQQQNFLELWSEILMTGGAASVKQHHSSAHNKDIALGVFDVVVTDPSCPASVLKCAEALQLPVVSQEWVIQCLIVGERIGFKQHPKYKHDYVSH

[5] = target: Bromodomain-containing protein 4 (Homo sapiens, UniProt O60885); experiment: Selectivity interaction (Bromodomain panel (DSF asssay)) EUB0000270b BRD4
[6] = target: Tyrosine-protein kinase JAK2 (Homo sapiens, UniProt O60674); experiment: Selectivity interaction (Kinase panel (Invitrogen)) EUB0000639a JAK2; details: at 200 nM
Tyrosine-protein kinase JAK2, sequence (O60674 whole entry): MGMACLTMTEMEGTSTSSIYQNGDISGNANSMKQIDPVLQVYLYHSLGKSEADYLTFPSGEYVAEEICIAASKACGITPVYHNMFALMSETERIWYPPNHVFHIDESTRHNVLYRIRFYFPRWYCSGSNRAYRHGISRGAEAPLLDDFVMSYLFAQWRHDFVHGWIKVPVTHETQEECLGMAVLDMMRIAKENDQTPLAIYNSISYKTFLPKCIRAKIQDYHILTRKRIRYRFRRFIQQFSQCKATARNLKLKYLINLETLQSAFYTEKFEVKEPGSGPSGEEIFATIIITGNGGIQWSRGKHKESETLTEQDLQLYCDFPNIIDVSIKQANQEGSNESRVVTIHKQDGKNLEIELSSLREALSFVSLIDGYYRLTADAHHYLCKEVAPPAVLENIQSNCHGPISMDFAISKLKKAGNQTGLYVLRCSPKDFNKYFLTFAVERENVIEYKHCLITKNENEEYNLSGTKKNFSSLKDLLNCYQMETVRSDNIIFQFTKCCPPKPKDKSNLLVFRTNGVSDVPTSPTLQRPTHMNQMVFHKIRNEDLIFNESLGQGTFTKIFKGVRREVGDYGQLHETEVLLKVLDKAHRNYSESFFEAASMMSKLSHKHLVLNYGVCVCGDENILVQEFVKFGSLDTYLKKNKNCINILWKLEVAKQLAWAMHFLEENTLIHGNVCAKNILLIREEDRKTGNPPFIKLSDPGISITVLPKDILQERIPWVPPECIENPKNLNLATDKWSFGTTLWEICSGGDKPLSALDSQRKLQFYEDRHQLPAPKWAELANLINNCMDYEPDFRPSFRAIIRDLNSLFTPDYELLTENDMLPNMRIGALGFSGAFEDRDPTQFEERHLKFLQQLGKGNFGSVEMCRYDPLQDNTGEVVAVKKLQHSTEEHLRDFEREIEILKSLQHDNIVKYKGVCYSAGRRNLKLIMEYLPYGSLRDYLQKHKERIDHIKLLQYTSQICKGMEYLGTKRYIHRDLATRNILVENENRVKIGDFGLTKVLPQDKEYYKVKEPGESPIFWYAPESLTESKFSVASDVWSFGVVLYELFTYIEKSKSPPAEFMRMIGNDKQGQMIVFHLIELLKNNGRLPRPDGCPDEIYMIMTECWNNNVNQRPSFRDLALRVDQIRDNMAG

[7] = target: Cyclin-dependent kinase 7 (Homo sapiens, UniProt P50613); experiment: Selectivity interaction (KinomeScan (DiscoverX)) EUB0001619a CDK7; details: at 1 µM
[8] = target: Phosphatidylinositol 4-kinase beta (Homo sapiens, UniProt Q9UBF8); experiment: Selectivity interaction (ActivX KiNativ screen (ex vivo kinase selectivity in human PBMCs)) EUB0001619a PI4KB; assay type: cell-based; details: PBMC, at 1 µM
[9] = target: Serine/threonine-protein kinase tousled-like 2 (Homo sapiens) (UniProt Q86UE8); experiment: Selectivity interaction (KinomeScan (DiscoverX)) EUB0000695a TLK2; details: at 100 nM
Serine/threonine-protein kinase tousled-like 2 (Homo sapiens), sequence (Q86UE8 whole entry, looked up): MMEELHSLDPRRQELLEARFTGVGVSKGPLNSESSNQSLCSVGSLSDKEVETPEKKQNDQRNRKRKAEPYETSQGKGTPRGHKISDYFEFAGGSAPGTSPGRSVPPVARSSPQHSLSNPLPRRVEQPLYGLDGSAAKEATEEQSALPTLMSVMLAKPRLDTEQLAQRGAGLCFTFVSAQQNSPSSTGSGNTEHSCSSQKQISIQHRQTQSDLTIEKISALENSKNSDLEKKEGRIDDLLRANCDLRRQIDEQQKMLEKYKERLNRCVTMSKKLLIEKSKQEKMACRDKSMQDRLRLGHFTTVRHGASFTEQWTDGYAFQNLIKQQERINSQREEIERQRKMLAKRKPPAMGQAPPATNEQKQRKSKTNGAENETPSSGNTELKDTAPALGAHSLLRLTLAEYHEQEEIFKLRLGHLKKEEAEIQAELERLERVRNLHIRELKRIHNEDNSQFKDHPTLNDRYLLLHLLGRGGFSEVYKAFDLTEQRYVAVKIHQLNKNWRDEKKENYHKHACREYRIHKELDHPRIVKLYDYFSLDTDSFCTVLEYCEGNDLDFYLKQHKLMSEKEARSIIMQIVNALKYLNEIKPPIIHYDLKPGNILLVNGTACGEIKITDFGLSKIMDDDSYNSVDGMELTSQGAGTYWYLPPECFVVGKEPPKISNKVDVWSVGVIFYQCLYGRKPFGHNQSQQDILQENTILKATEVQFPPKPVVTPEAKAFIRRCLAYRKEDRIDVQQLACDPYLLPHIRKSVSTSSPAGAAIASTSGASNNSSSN

[10] = target: T3, Ribosomal protein S6 kinase alpha-3 (Homo sapiens, UniProt P51812); experiment: Selectivity interaction (SelectScreen profiling (Invitrogen)) EUB0000607a RPS6KA3; details: at 2 µM
T3 sequence (P51812 whole entry): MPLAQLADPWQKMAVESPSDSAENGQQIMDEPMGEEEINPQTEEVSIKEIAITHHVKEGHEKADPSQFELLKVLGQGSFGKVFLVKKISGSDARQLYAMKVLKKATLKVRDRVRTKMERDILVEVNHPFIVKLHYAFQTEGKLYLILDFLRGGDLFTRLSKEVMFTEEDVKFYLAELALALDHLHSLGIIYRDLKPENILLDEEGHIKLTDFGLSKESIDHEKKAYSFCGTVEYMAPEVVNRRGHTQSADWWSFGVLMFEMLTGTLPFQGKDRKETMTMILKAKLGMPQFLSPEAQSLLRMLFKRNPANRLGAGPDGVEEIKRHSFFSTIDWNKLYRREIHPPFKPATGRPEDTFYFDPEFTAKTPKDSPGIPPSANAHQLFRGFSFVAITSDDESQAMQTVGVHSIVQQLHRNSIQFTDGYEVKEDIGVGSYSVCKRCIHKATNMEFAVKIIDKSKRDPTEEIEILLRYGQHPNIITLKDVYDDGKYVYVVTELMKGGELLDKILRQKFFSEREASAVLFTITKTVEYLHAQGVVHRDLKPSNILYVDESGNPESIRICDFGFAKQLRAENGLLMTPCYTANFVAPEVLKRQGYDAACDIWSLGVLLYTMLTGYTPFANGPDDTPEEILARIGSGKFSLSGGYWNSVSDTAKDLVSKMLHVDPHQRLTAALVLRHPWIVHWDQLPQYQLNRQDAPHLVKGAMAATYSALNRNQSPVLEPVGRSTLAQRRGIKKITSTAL

[11] = target: T4, Ephrin type-B receptor 3 (Homo sapiens) (UniProt P54753); experiment: Selectivity interaction (Kinase panel (Z-LYTE Assay)) EUB0001632a EPHB3; details: at 10 µM
T4 sequence (whole entry): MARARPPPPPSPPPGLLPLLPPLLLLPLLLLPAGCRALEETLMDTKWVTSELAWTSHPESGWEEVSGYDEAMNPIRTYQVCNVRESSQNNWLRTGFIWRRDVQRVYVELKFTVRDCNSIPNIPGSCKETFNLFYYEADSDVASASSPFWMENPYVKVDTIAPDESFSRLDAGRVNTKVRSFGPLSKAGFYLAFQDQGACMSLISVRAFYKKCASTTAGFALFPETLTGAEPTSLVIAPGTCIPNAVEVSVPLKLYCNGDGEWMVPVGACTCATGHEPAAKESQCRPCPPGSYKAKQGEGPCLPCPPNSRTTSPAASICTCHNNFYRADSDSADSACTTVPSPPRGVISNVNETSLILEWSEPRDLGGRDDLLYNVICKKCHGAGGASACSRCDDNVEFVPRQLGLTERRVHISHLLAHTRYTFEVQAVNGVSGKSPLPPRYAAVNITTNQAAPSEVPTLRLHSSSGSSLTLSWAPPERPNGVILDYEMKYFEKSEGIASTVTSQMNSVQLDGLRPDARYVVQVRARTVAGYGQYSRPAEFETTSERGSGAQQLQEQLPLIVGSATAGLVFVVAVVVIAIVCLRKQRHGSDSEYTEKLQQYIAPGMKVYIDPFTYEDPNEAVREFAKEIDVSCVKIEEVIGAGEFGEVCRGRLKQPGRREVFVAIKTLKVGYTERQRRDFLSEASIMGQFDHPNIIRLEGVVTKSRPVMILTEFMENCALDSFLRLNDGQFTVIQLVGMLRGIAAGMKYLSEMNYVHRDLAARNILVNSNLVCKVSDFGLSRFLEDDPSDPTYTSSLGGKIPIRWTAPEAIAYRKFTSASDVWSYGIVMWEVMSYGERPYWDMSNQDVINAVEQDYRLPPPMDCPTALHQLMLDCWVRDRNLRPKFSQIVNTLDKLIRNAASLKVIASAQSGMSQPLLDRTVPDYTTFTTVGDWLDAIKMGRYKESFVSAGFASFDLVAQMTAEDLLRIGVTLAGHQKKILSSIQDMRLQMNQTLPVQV

[12] = target: T3, Ribosomal protein S6 kinase alpha-3; experiment: Selectivity interaction (ProQinase) EUB0000171b RPS6KA3

Cyclin-dependent kinase 4, sequence (P11802 whole entry): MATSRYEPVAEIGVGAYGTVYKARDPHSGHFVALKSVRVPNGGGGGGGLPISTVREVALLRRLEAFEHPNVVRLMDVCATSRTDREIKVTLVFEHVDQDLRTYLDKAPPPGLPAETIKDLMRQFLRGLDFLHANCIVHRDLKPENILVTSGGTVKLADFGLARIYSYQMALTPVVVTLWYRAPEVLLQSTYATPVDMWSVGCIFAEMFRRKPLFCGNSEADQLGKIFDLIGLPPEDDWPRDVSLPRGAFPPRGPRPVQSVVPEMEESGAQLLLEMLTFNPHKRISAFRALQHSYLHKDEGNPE

COc1cc(Nc2nc(C)cc(-c3cnn4nc(OC)ccc34)n2)cc(C(F)(F)F)c1
% of control [1]: 70%

C=CC(=O)Nc1ccc(C(=O)Nc2[nH]nc3c2CN(C(=O)N[C@H](CN(C)C)c2ccccc2)C3(C)C)cc1
% of engagement [2]: 5.3%

CN(C(=O)c1cnn2cccnc12)c1cc2c(cc1N1CCOCC1)C(=O)N(C[C@@H](F)C(C)(C)O)C2
dTM [3]: 0 K

Cc1cc(CN)cc(C)c1-c1ncn(C)c1-c1cncn1C
dTagg [4]: 0.1 K | dTM [5]: -0.92 K

CC[C@@H]1[C@H](F)C(=O)N[C@@H]1COc1nccc2cc(C(N)=O)c(OC)cc12 [ZIMLOVISERTIB]
% of inhibition [6]: 17.6%

N#Cc1cccc(-c2c[nH]c3ncnc(N4CCOCC4)c23)c1
% of control [7]: 81% | % of inhibition [8]: -27%

Cc1cc(F)c(C(=O)Nc2cccc(-c3nncn3C(C)C)n2)cc1-n1cnc(C2CC2)c1
% of control [9]: 100%

CNC(=O)Nc1ccc(-c2nc(N3CC4CCC(C3)O4)c3cnn(C4CCC5(CC4)OCCO5)c3n2)cc1
% of inhibition [10]: -2%

Cn1cc(-n2cnc3c(NCc4nc5cc(Cl)c(Cl)cc5[nH]4)nc(N4CCOCC4)nc32)cn1
% of control [11]: 2.4%

C=CC(=O)Nc1cccc(C(=O)Nc2ccc(Nc3cc(-c4[nH]c(SC)nc4C)ccn3)cc2)c1
% of control ([12]; at 1 µM): 81% | % of control ([12]; at 5 µM): 58%
